Measurements from patent publication US20200360352A1, “USE OF RIFAMYCIN-NITROIMIDAZOLE COUPLING MOLECULE” (priority 2019, published 2020).
≈ marks a conversion by molar mass, not a printed value. Read-outs that look alike come from different tables or passages of the source. Blank lines part the entries; values can stand above or below the compound they belong to.

Tests used:
Format in all cases: cell-based
Mycobacterium avium [1] = experiment: MIC, micro broth dilution with resazurin readout; details: read-out: Minimum Inhibitory Concentration (MIC)
Mycobacterium abscessus [2] = experiment: MIC, micro broth dilution with resazurin readout; details: Mycobacteroides abscessus, read-out: Minimum Inhibitory Concentration (MIC)
Mycobacterium kansasii [3] = experiment: MIC, micro broth dilution with resazurin readout; details: read-out: Minimum Inhibitory Concentration (MIC)
[4] = tested on: Mycobacterium intracellulare; experiment: MIC, micro broth dilution with resazurin readout; details: MH Culture Medium, read-out: Minimum Inhibitory Concentration (MIC)
[5] = tested on: Mycobacterium massiliense; experiment: MIC, micro broth dilution with resazurin readout; details: Mycobacteroides abscessus, MH Culture Medium, read-out: Minimum Inhibitory Concentration (MIC)
Mycobacterium fortuitum = experiment: MIC, micro broth dilution with resazurin readout; details: Mycolicibacterium fortuitum, MH Culture Medium, read-out: Minimum Inhibitory Concentration (MIC)
Mycodacterium chelonei = experiment: MIC, micro broth dilution with resazurin readout; details: MH Culture Medium; Chelonei (standard strain); read-out: Minimum Inhibitory Concentration (MIC)
Mycobacterium avium [6] = experiment: MBC, plating of MIC wells and CFU count; details: Mycobacterium avium Smooth, read-out: Minimum Bactericidal Concentration (MBC)
Mycobacterium abscessus [7] = experiment: MBC, plating of MIC wells and CFU count; details: Mycobacteroides abscessus, read-out: Minimum Bactericidal Concentration (MBC)
Mycobacterium kansasii [8] = experiment: MBC, plating of MIC wells and CFU count; details: read-out: Minimum Bactericidal Concentration (MBC)
[9] = MH Culture Medium, Avium (standard strain)
[10] = MH Culture Medium, clinically isolated strain Avium (S31)
[11] = MH Culture Medium, clinically isolated strain Avium (S123)
[12] = MH Culture Medium, clinically isolated strain Avium (S559)
[13] = MH Culture Medium, clinically isolated strain Avium (S568)
[14] = MH Culture Medium, clinically isolated strain Avium (S577)
[15] = MH Culture Medium, clinically isolated strain Avium (S597)
[16] = MH Culture Medium, clinically isolated strain Avium (S602)
[17] = MH Culture Medium, Kansasii (standard strain)
[18] = MH Culture Medium, clinically isolated strain Kansasii (S9)
[19] = MH Culture Medium, clinically isolated strain Kansasii (S199)
[20] = MH Culture Medium, clinically isolated strain Kansasii (S520)
[21] = MH Culture Medium, clinically isolated strain Kansasii (S609)
[22] = Intracellulare (standard strain)
[23] = clinically isolated strain Intracellulare (S90)
[24] = clinically isolated strain Intracellulare (S261)
[25] = clinically isolated strain Intracellulare (S269)
[26] = clinically isolated strain Intracellulare (S290)
[27] = clinically isolated strain Intracellulare (S291)
[28] = clinically isolated strain Intracellulare (S298)
[29] = clinically isolated strain Intracellulare (S442)
[30] = clinically isolated strain Intracellulare (S541)
[31] = clinically isolated strain Intracellulare (S623)
[32] = clinically isolated strain Intracellulare (ZPS)
[33] = clinically isolated strain Massiliense (D10)
[34] = clinically isolated strain Massiliense (D14)
[35] = clinically isolated strain Massiliense (D18)
[36] = clinically isolated strain Fortuitum (S103)
[37] = clinically isolated strain Fortuitum (S111)

- MIC (Mycobacterium avium [1]; 7H9 Broth, Mycobacterium avium Smooth): > 64 µg/mL
- MIC (Mycobacterium avium [1]; MH Broth, Mycobacterium avium Smooth): > 64 µg/mL
- MIC (Mycobacterium avium [1]; [9]): 8 µg/mL (≈ 46.7 µM)
- MIC (Mycobacterium avium [1]; [10]): 16 µg/mL (≈ 93.5 µM)
- MIC (Mycobacterium avium [1]; [11]): 8 µg/mL (≈ 46.7 µM)
- MIC (Mycobacterium avium [1]; [12]): 8 µg/mL (≈ 46.7 µM)
- MIC (Mycobacterium avium [1]; [13]): 8 µg/mL (≈ 46.7 µM)
- MIC (Mycobacterium avium [1]; [14]): 8 µg/mL (≈ 46.7 µM)
- MIC (Mycobacterium avium [1]; [15]): 8 µg/mL (≈ 46.7 µM)
- MIC (Mycobacterium avium [1]; [16]): 32 µg/mL (≈ 187 µM)
- MIC (Mycobacterium abscessus [2]; 7H9 Broth): > 64 µg/mL
- MIC (Mycobacterium abscessus [2]; MH Broth): > 64 µg/mL
- MIC (Mycobacterium kansasii [3]; 7H9 Broth): > 64 µg/mL
- MIC (Mycobacterium kansasii [3]; MH Broth): > 64 µg/mL
- MIC (Mycobacterium kansasii [3]; [17]): 8 µg/mL (≈ 46.7 µM)
- MIC (Mycobacterium kansasii [3]; [18]): 8 µg/mL (≈ 46.7 µM)
- MIC (Mycobacterium kansasii [3]; [19]): 8 µg/mL (≈ 46.7 µM)
- MIC (Mycobacterium kansasii [3]; [20]): 8 µg/mL (≈ 46.7 µM)
- MIC (Mycobacterium kansasii [3]; [21]): 8 µg/mL (≈ 46.7 µM)
- MIC [4, 22]: 8 µg/mL (≈ 46.7 µM)
- MIC [4, 23]: 16 µg/mL (≈ 93.5 µM)
- MIC [4, 24]: 16 µg/mL (≈ 93.5 µM)
- MIC [4, 25]: 16 µg/mL (≈ 93.5 µM)
- MIC [4, 26]: 8 µg/mL (≈ 46.7 µM)
- MIC [4, 27]: 8 µg/mL (≈ 46.7 µM)
- MIC [4, 28]: 16 µg/mL (≈ 93.5 µM)
- MIC [4, 29]: 8 µg/mL (≈ 46.7 µM)
- MIC [4, 30]: 16 µg/mL (≈ 93.5 µM)
- MIC [4, 31]: 8 µg/mL (≈ 46.7 µM)
- MIC [4, 32]: 8 µg/mL (≈ 46.7 µM)
- MIC [5, 33]: 16 µg/mL (≈ 93.5 µM)
- MIC [5, 34]: 16 µg/mL (≈ 93.5 µM)
- MIC [5, 35]: 8 µg/mL (≈ 46.7 µM)
- MIC (Mycobacterium fortuitum; Fortuitum (standard strain)): 16 µg/mL (≈ 93.5 µM)
- MIC (Mycobacterium fortuitum; [36]): 8 µg/mL (≈ 46.7 µM)
- MIC (Mycobacterium fortuitum; [37]): 16 µg/mL (≈ 93.5 µM)
- MIC (Mycodacterium chelonei): 16 µg/mL (≈ 93.5 µM)
SMILES: Cc1ncc([N+](=O)[O-])n1CCO [Metronidazole]
- MBC (Mycobacterium avium [6]; 7H9 Broth): > 64 µg/mL
- MBC (Mycobacterium avium [6]; MH Broth): > 64 µg/mL
- MBC (Mycobacterium abscessus [7]; 7H9 Broth): > 64 µg/mL
- MBC (Mycobacterium abscessus [7]; MH Broth): > 64 µg/mL
- MBC (Mycobacterium kansasii [8]; 7H9 Broth): > 64 µg/mL
- MBC (Mycobacterium kansasii [8]; MH Broth): > 64 µg/mL

- MIC (Mycobacterium avium [1]; [9]): 1 µg/mL (≈ 2.49 µM)
- MIC (Mycobacterium avium [1]; [10]): 8 µg/mL (≈ 19.9 µM)
- MIC (Mycobacterium avium [1]; [11]): 0.5 µg/mL (≈ 1.25 µM)
- MIC (Mycobacterium avium [1]; [12]): 1 µg/mL (≈ 2.49 µM)
- MIC (Mycobacterium avium [1]; [13]): 0.5 µg/mL (≈ 1.25 µM)
- MIC (Mycobacterium avium [1]; [14]): 0.5 µg/mL (≈ 1.25 µM)
- MIC (Mycobacterium avium [1]; [15]): 2 µg/mL (≈ 4.98 µM)
- MIC (Mycobacterium avium [1]; [16]): 4 µg/mL (≈ 9.96 µM)
- MIC (Mycobacterium kansasii [3]; [17]): 0.0625 µg/mL (≈ 0.156 µM)
- MIC (Mycobacterium kansasii [3]; [18]): 0.0625 µg/mL (≈ 0.156 µM)
- MIC (Mycobacterium kansasii [3]; [19]): 0.0625 µg/mL (≈ 0.156 µM)
- MIC (Mycobacterium kansasii [3]; [20]): 0.0625 µg/mL (≈ 0.156 µM)
- MIC (Mycobacterium kansasii [3]; [21]): 0.0625 µg/mL (≈ 0.156 µM)
- MIC [4, 22]: 0.25 µg/mL (≈ 0.623 µM)
- MIC [4, 23]: 2 µg/mL (≈ 4.98 µM)
- MIC [4, 24]: 2 µg/mL (≈ 4.98 µM)
- MIC [4, 25]: 2 µg/mL (≈ 4.98 µM)
- MIC [4, 26]: 2 µg/mL (≈ 4.98 µM)
- MIC [4, 27]: 1 µg/mL (≈ 2.49 µM)
- MIC [4, 28]: 2 µg/mL (≈ 4.98 µM)
- MIC [4, 29]: 2 µg/mL (≈ 4.98 µM)
- MIC [4, 30]: 64 µg/mL (≈ 159 µM)
- MIC [4, 31]: 2 µg/mL (≈ 4.98 µM)
- MIC [4, 32]: 1 µg/mL (≈ 2.49 µM)
- MIC [5, 33]: 32 µg/mL (≈ 79.7 µM)
- MIC [5, 34]: 32 µg/mL (≈ 79.7 µM)
- MIC [5, 35]: 8 µg/mL (≈ 19.9 µM)
- MIC (Mycobacterium fortuitum; Fortuitum (standard strain)): 1 µg/mL (≈ 2.49 µM)
- MIC (Mycobacterium fortuitum; [36]): 1 µg/mL (≈ 2.49 µM)
- MIC (Mycobacterium fortuitum; [37]): 0.5 µg/mL (≈ 1.25 µM)
- MIC (Mycodacterium chelonei): 4 µg/mL (≈ 9.96 µM)
SMILES: COc1c(N2C[C@@H]3CCCN[C@@H]3C2)c(F)cc2c(=O)c(C(=O)O)cn(C3CC3)c12 [Moxifloxacin]

- MIC (Mycobacterium avium [1]; [9]): 0.0625 µg/mL (≈ 0.0738 µM)
- MIC (Mycobacterium avium [1]; [10]): 0.0625 µg/mL (≈ 0.0738 µM)
- MIC (Mycobacterium avium [1]; [11]): 0.0625 µg/mL (≈ 0.0738 µM)
- MIC (Mycobacterium avium [1]; [12]): 0.0625 µg/mL (≈ 0.0738 µM)
- MIC (Mycobacterium avium [1]; [13]): 0.0625 µg/mL (≈ 0.0738 µM)
- MIC (Mycobacterium avium [1]; [14]): 0.0625 µg/mL (≈ 0.0738 µM)
- MIC (Mycobacterium avium [1]; [15]): 0.0625 µg/mL (≈ 0.0738 µM)
- MIC (Mycobacterium avium [1]; [16]): 0.0625 µg/mL (≈ 0.0738 µM)
- MIC (Mycobacterium kansasii [3]; [17]): 0.0625 µg/mL (≈ 0.0738 µM)
- MIC (Mycobacterium kansasii [3]; [18]): 0.0625 µg/mL (≈ 0.0738 µM)
- MIC (Mycobacterium kansasii [3]; [19]): 0.0625 µg/mL (≈ 0.0738 µM)
- MIC (Mycobacterium kansasii [3]; [20]): 0.0625 µg/mL (≈ 0.0738 µM)
- MIC (Mycobacterium kansasii [3]; [21]): 0.0625 µg/mL (≈ 0.0738 µM)
- MIC [4, 22]: 0.0625 µg/mL (≈ 0.0738 µM)
- MIC [4, 23]: 0.125 µg/mL (≈ 0.148 µM)
- MIC [4, 24]: 0.25 µg/mL (≈ 0.295 µM)
- MIC [4, 25]: 0.0625 µg/mL (≈ 0.0738 µM)
- MIC [4, 26]: 0.0625 µg/mL (≈ 0.0738 µM)
- MIC [4, 27]: 0.0625 µg/mL (≈ 0.0738 µM)
- MIC [4, 28]: 0.5 µg/mL (≈ 0.59 µM)
- MIC [4, 29]: 0.0625 µg/mL (≈ 0.0738 µM)
- MIC [4, 30]: 0.125 µg/mL (≈ 0.148 µM)
- MIC [4, 31]: 0.25 µg/mL (≈ 0.295 µM)
- MIC [4, 32]: 0.0625 µg/mL (≈ 0.0738 µM)
- MIC [5, 33]: > 64 µg/mL
- MIC [5, 34]: 64 µg/mL (≈ 75.6 µM)
- MIC [5, 35]: 64 µg/mL (≈ 75.6 µM)
- MIC (Mycobacterium fortuitum; Fortuitum (standard strain)): 4 µg/mL (≈ 4.72 µM)
- MIC (Mycobacterium fortuitum; [36]): 32 µg/mL (≈ 37.8 µM)
- MIC (Mycobacterium fortuitum; [37]): 4 µg/mL (≈ 4.72 µM)
- MIC (Mycodacterium chelonei): 64 µg/mL (≈ 75.6 µM)
SMILES: CO[C@H]1/C=C/O[C@@]2(C)Oc3c(C)c(O)c4c(c3C2=O)C2=NC3(CCN(CC(C)C)CC3)NC2=C(NC(=O)/C(C)=C\C=C\[C@H](C)[C@H](O)[C@@H](C)[C@@H](O)[C@@H](C)[C@H](OC(C)=O)[C@@H]1C)C4=O [Rifabutin]
